From patent US9561228B2 (Celgene Avilomics Research, Inc., priority 2013, dated 2017) come the findings set out here.

Structures are written as SMILES.

For one assay, the target named is T1, MEK1 activated ERK1 (Homo sapiens, UniProt P27361).
T1 construct: purchased Millipore (Billerica, Mass.) 14-439-K
Put plainly: Omnia continuous-read kinase assay for potency against MEK1 activated ERK1. It counts as biochemical. As to conditions: MEK1 activated ERK1, ATP at KM; read-out: ERK1 Omnia WT ATP KM IC50. In outline: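 Apparent IC50 came from initial reaction slopes (RFU vs time) plotted against log inhibitor with a variable-slope fit. Reactions were started with ERK1 (4 nM final) added to 50 μM ATP, roughly at its appKM, and 10 μM Sox-conjugated ST17 peptide in 20 mM Tris pH 7.5, 5 mM MgCl2. Fluorescence was monitored every 71 seconds.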

For assay [1], the system named is ERK1/2 phosphorylation of p90RSK in A375 cells. Kind of assay: Detection of total and phosphor-RSK by MSD ELISA (A375). It is filed as cell-based. Particulars: Homo sapiens, A-375, read-out: ERK1/ERK2 PRSK A375 EC50. The method, then:
Detection of Total and Phosphor-RSK by MSD ELISA (A375)
(§1) The protocol below describes an assay to measure the kinase activity of ERK1/2 to phosphorylate a substrate, p90RSK, in the presence or absence of a test compound.
A375 cells were grown in DMEM/10% FBS. Twenty four hours prior to the assay, 50,000 cells per well were plated in a 96 well flat bottom plate. Once cells attached to the plate, the medium was replaced with 100 ul of DMEM/0.1% FBS. Cells were cultured overnight in an incubator at 37° C.
Compound stock solutions of 10 mM in DMSO were prepared. 1000× dilutions were then prepared in DMSO. 1 uL of DMSO solution was then transferred to 1 ml DMEM/0.1% FBS in a deep well plate. Cell plate media was discarded, followed by addition of 100 uL of the compound-containing media. The preparation was incubated at 37° C. for 2 hrs.
Cell lysates were prepared as described below.
pRSK or Total RSK MSD Assay
MSD plates: Blank MSD plates were coated with 30 uL capture antibody (BD 610226) at a final concentration of 1 ug/mL in PBS. Both pRSK and total RSK MSD assays used the same capture antibody at the same concentration. Antibody stock concentration was 250 ug/mL. Once antibody solution was added to the MSD plate, the sides were tapped to be certain it was coated completely (visual inspection). It was then covered and placed at 4° C. overnight on a level surface.
Block MSD Plate: The coating antibody was removed and the plate was washed on a plate washer in MSD wash buffer. The last bit of wash solution was tapped out and 150 uL/well of 3% BSA in MSD wash buffer was added in. The preparation was placed on a shaker at room temperature for at least an hour.
Add samples: Media was removed from compound-treated cells and replaced with 55 uL/well MSD cell lysis buffer containing protease and phosphotase I & II inhibitors. The preparation was incubated on a shaker in a cold room for 30-45 min. The blocked MSD plate was washed a on plate washer, tapping out the last bit of wash solution, followed by addition of 50 uL (of the 55 ul) cell lysate in a well-well transfer. The preparation was covered and incubated on a shaker at room temp for 2 hours. The lysate was removed, washed on a plate washer 3 times, and the last bit of wash buffer was tapped out and replace with 25 uL/well detection antibody (described below).
For pRSK detection, a pRSK antibody stock of 21 ug/mL was prepared as follows: 1 ug/mL pRSK Ser380 antibody (Cell Signaling Technology, Cat. #9335)+1:750 anti-rabbit SulfoTag (Mesoscale Discovery, Cat. # R32AB-1) in 1% BSA in MSD wash buffer.
(§2) For total RSK detection, a total RSK antibody stock of 200 ug/mL was prepared as follows: 1 ug/mL total RSK (Santa Cruz sc-231G) antibody+1:750 anti-goat SulfoTag (from MSD, R32AG-1) in 1% BSA in MSD wash buffer.
The plate was incubated for 1 hr at room temperature on a shaker, followed by three washings. The last bit of wash buffer was tapped out. 150 uL/well 1×MSD Read buffer was added and the plate was then analyzed.

Assay [2] deals with ERK1/2 phosphorylation of p90RSK in HCT116 cells. Kind of assay: Detection of total and phospho-RSK by MSD ELISA (HCT116). It is filed as cell-based. As to conditions: Homo sapiens, HCT-116, read-out: ERK1/ERK2 PRSK HCT116 EC50. The method, then: Detection of Total and Phospho-RSK by MSD ELISA (HCT116)
as §1
HCT116 cells were grown in RPMI/10% FBS. Prior to the assay, 50,000 cells per well were plated in a 96 well flat bottom plate. Cells were cultured overnight in an incubator at 37° C.
Compound stocks were 10 mM in DMSO. A 1000× dilution was made in DMSO. 1 uL of the DMSO solution was transferred to 1 ml RPMI/10% FBS in a deep well plate. Media in the cell plate was discarded, and 100 uL of the compound-containing media was added. The preparation was incubated at 37° C. for 2 hrs.
Preparation of cell lysates are described below.
pRSK or total RSK MSD Assay
MSD plates: Blank MSD plates were coated with 30 uL capture antibody (BD 610226) at a final concentration of 1 ug/mL in PBS. Both pRSK and total RSK MSD assays used the same capture antibody at the same concentration. Antibody stock concentration was 250 ug/mL. Once antibody solution was added to MSD plate, the sides were tapped to be certain it was coated completely (visual inspection). It was then covered and placed at 4° C. overnight on a level surface.
Block MSD Plate: The coating antibody was removed and the plate was washed on a plate washer in MSD wash buffer. The last bit of wash solution was tapped out and 150 uL/well 3% BSA (MSD Blocker A) in MSD wash buffer was added. The preparation was placed on a shaker at room temperature for at least an hour.
Add samples: Media was removed from compound-treated cells and replaced with 55 uL/well MSD cell lysis buffer containing protease and phosphotase I & II inhibitors. The preparations was incubate on a shaker in a cold room for 30-45 min. The blocked MSD plate was washed on a plate washer, and the last bit of wash solution was tapped out. Next was added 50 uL (of the 55 uL) cell lysate in a well-well transfer. The preparation was covered and incubated on shaker at room temp for 2 hours. The lysate was then removed and washed on plate washer 3 times. The last bit of wash buffer was then tapped out and replaced with 25 uL/well detection antibody (described below).
For pRSK detection, a pRSK antibody stock of 21 ug/mL was prepared as follows: 1 ug/mL pRSK Ser380 antibody (Cell Signaling Technology, Cat. #9335)+1:750 anti-rabbit SulfoTag (from MSD, R32AB-1) in 1% BSA in MSD wash buffer.
as §2
The plate was incubated for 1 hr at room temperature on a shaker, followed by three washes. The last bit of wash buffer was tapped out. Next, 150 uL/well 1×MSD Read buffer was added and the plate was analyzed by the MSD reader.
(In general: In an ELISA, binding on a coated surface is turned into a signal by an enzyme label.)

Assay [3] relates to ERK1/2 phosphorylation of p90RSK in HT29 cells. Put plainly: pRSK MSD Assay in HT29 cells. It counts as cell-based. As to conditions: Homo sapiens, HT-29, read-out: ERK1/ERK2 PRSK MSD HT29 EC50. The essentials:
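Phospho-RSK level, read by electrochemiluminescence on RSK-antibody-coated MSD plates with a phospho-RSK/Sulfo-tag detection pair, reports cellular ERK1/2 activity. HT29 cells, kept overnight in 0.1% FBS medium, were exposed to compound for 120 min at 37° C before lysis.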

A word on the IC50: it is the point on the concentration scale where inhibition reaches its midpoint.

T1 sequence (P27361 whole entry): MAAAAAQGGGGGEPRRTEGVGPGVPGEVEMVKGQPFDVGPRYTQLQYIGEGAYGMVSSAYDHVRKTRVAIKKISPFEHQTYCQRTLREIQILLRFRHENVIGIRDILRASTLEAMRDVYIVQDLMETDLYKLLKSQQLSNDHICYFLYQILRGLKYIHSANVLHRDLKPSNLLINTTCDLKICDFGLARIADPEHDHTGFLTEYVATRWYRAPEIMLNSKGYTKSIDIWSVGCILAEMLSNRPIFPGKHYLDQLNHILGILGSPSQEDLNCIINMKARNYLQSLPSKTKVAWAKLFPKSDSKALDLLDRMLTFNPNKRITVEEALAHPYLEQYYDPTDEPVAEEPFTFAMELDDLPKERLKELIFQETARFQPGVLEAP

`C=CC(=O)Nc1cc(C)ccc1Nc1nc(N[C@H]2CCN(S(=O)(=O)C=C)C2)ncc1C(F)(F)F` [Compound I-279, (S)—N-(5-Methyl-2-((5-(trifluoromethyl)-2-((1-(vinylsulfonyl)pyrrolidin-3-yl)amino)pyrimidin-4-yl)amino)phenyl)acrylamide]: the 50% inhibitory concentration (IC50) at MEK1 activated ERK1 lay within 501 to 999 nM. Also, the EC50 in assay [1] and in assay [2] was over 1000 nM throughout.
Turning to `C=CC(=O)Nc1ccccc1Nc1nc(Nc2cc(OC)nc(N3CCN(S(C)(=O)=O)CC3)c2)ncc1C(F)(F)F` [Compound I-290, N-(2-((2-((2-Methoxy-6-(4-(methylsulfonyl)piperazin-1-yl)pyridin-4-yl)amino)-5-(trifluoromethyl)pyrimidin-4-yl)amino)phenyl)acrylamide], the EC50 was over 1000 nM in assay [3], over 1000 nM in assay [1] and 501 to 999 nM in assay [2].
Consider `C=CC(=O)Nc1cc(C)ccc1Nc1nc(Nc2cc(OC)ncc2OC)ncc1C(F)(F)F` [Compound I-406, N-(2-((2-((2,5-dimethoxypyridin-4-yl)amino)-5-(trifluoromethyl)pyrimidin-4-yl)amino)-5-methylphenyl)acrylamide], for which the EC50 in assay [3], in assay [1] and in assay [2] was 101 to 500 nM throughout.
On to `C=CC(=O)Nc1cc(OCC(=O)N2CCN(C(C)=O)CC2)ccc1Nc1nc(Nc2cc(OC)ncc2C)ncc1C(F)(F)F` [Compound I-404, N-(5-(2-(4-acetylpiperazin-1-yl)-2-oxoethoxy)-2-((2-((2-methoxy-5-methylpyridin-4-yl)amino)-5-(trifluoromethyl)pyrimidin-4-yl)amino)phenyl)acrylamide], for which the EC50 in assay [3], in assay [1] and in assay [2] was 101 to 500 nM each time.
For `C=CC(=O)Nc1cc(Cl)ccc1Nc1nc(Nc2cc(OC)ncc2C)ncc1C(F)(F)F` [Compound I-289, N-(5-Chloro-2-((2-((2-methoxy-5-methylpyridin-4-yl)amino)-5-(trifluoromethyl)pyrimidin-4-yl)amino)phenyl)acrylamide], the EC50 was under 100 nM in assay [3], under 100 nM in assay [1] and 101 to 500 nM in assay [2].
As for `C#CCOc1cc(C)c(Nc2ncc(C(F)(F)F)c(Nc3ccc(C)cc3NC(=O)C=C)n2)cc1C(N)=O` [Compound I-362, 5-((4-((2-acrylamido-4-methylphenyl)amino)-5-(trifluoromethyl)pyrimidin-2-yl)amino)-4-methyl-2-(prop-2-yn-1-yloxy)benzamide], the values for the EC50 in assay [3], in assay [1] and in assay [2] were 501 to 999 nM, 501 to 999 nM and over 1000 nM, respectively.
As to `C=CC(=O)Nc1cc(C)ccc1Nc1nc(N[C@H]2CCCN(S(=O)(=O)C=C)C2)ncc1C(F)(F)F` [Compound I-277, (S)—N-(5-Methyl-2-((5-(trifluoromethyl)-2-((1-(vinylsulfonyl)piperidin-3-yl)amino)pyrimidin-4-yl)amino)phenyl)acrylamide], the EC50 in assay [3], in assay [1] and in assay [2] was over 1000 nM each time.
As for `C=CC(=O)Nc1cc(OCC(=O)N2CCN(S(C)(=O)=O)CC2)ccc1Nc1nc(Nc2cc(OC)ncc2C)ncc1C(F)(F)F` [Compound I-405, N-(2-((2-((2-methoxy-5-methylpyridin-4-yl)amino)-5-(trifluoromethyl)pyrimidin-4-yl)amino)-5-(2-(4-(methylsulfonyl)piperazin-1-yl)-2-oxoethoxy)phenyl)acrylamide], the EC50 in assay [3] was under 100 nM; in assay [1] it was 101 to 500 nM; in assay [2], under 100 nM.
As for `C=CC(=O)Nc1cc(C)ccc1Nc1nc(N[C@@H]2CCCN(S(=O)(=O)C=C)C2)ncc1C(F)(F)F` [Compound I-278, (R)—N-(5-Methyl-2-((5-(trifluoromethyl)-2-((1-(vinylsulfonyl)piperidin-3-yl)amino)pyrimidin-4-yl)amino)phenyl)acrylamide], the EC50 in assay [3], in assay [1] and in assay [2] was over 1000 nM in each case.
Regarding `C=CC(=O)Nc1cc(OC)ccc1Nc1nc(Nc2cc(OC)nc(N3CCN(C(C)=O)CC3)c2)ncc1Cl` [Compound I-297, N-(2-((2-((2-(4-acetylpiperazin-1-yl)-6-methoxypyridin-4-yl)amino)-5-chloropyrimidin-4-yl)amino)-5-methoxyphenyl)acrylamide], the EC50 in assay [3] was under 100 nM; in assay [1], over 1000 nM; in assay [2], under 100 nM.
As to `C=CC(=O)Nc1ccccc1Nc1nc(Nc2ccnc(NC)c2)ncc1C(F)(F)F` [Compound I-321, N-(2-((2-((2-(methylamino)pyridin-4-yl)amino)-5-(trifluoromethyl)pyrimidin-4-yl)amino)phenyl)acrylamide], the EC50 in assay [3], in assay [1] and in assay [2] was over 1000 nM each time.
In the case of `C=CC(=O)Nc1cc(C)ccc1Nc1nc(Nc2cc(OC)nc(N3CCC(O)CC3)c2)ncc1C(F)(F)F` [Compound I-332, N-(2-((2-((2-(4-hydroxypiperidin-1-yl)-6-methoxypyridin-4-yl)amino)-5-(trifluoromethyl)pyrimidin-4-yl)amino)-5-methylphenyl)acrylamide], the results for the EC50 in assay [3], in assay [1] and in assay [2] were under 100 nM, 101 to 500 nM and 101 to 500 nM, respectively.
